Paper PMC11647725, “Discovery of 4-(5-Membered)Heteroarylether-6-methylpicolinamide Negative Allosteric Modulators of Metabotropic Glutamate Receptor Subtype 5” (ACS Medicinal Chemistry Letters, 2024)

Experiments:
human mGlu1 = biological target: T1, human mGlu1 (Homo sapiens, UniProt Q13255); assay: mGlu selectivity, calcium mobilization assay; type: cell-based
T1 construct: expressed in transfected cells; host or cells: TREx-293, tetracycline-inducible
Protocol: (§1) the presence of 5% CO2, the dye solutions were removed and replaced with assay buffer using a microplate washer, leaving 20 μL of assay buffer in the cell plate. The compound, agonist, and cell plates were placed inside the Functional Drug Screening System (FDSS 7000 or uCell, Hamamatsu, Japan) to measure the calcium flux. Assays were run at 37 °C. A triple add protocol was used to measure Ca kinetics. Briefly, after establishment of a fluorescence baseline for 2 seconds (excitation, 480 nm; emission, 530 nm), 20 µL of test compound was added to the cells and the response was measured for 140 seconds. This was followed by the addition of 10 µL (5X) of an EC20 concentration of Glu agonist, and the response of the cells was measured for 125 seconds. A third addition occurred by adding 12 uL (5X) of an EC80 concentration of Glu agonist and the response of the cells was measured for 90 seconds. […] Calcium fluorescence was recorded as fold over basal fluorescence and raw data were normalized to the maximal response to Glu agonist (ECMax). Compound-evoked decreases in calcium response in the presence of Glu EC80 agonist were determined as inhibition activity, and potency (IC50) and maximum inhibition responses (% GluMin) of compounds were determined using a four-parameter logistical equation using GraphPad Prism (La Jolla, CA) or the Dotmatics software platform (Woburn, MA) : […]

human mGlu4 = biological target: T2, human mGlu4 (Homo sapiens, UniProt Q14833); assay: mGlu selectivity, calcium mobilization assay; type: cell-based
T2 construct: expressed in transfected cells
T2 sequence (Q14833 33-912): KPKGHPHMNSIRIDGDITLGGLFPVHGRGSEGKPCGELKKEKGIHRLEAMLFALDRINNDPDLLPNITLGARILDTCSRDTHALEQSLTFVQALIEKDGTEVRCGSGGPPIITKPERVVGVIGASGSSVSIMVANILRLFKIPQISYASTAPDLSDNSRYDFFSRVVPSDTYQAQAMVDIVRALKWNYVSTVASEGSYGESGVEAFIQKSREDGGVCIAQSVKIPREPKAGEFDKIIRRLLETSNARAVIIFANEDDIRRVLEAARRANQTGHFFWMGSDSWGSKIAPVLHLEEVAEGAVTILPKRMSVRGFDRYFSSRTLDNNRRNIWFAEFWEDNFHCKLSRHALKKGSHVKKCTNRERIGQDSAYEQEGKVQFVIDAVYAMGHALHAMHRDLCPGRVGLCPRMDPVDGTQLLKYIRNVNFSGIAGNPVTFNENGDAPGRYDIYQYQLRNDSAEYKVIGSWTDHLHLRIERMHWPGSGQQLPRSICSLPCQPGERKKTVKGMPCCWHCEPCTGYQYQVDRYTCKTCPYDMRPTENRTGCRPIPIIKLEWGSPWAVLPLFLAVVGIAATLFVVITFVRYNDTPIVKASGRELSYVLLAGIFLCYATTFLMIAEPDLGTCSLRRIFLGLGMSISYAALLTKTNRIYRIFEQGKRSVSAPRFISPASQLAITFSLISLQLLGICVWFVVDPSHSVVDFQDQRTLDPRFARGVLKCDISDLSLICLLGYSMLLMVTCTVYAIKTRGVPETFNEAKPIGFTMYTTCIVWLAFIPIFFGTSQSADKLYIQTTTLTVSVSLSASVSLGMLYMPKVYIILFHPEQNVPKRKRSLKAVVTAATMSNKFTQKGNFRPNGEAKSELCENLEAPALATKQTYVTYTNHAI
Protocol: as §1

Adenosine A2A = Adenosine A2A (Homo sapiens, UniProt P29274); assay: Lead Profiling Screen, Eurofins Panlabs; type: binding; settings: hum, read-out: % inh at 10 μM
Chain of Adenosine A2A (P29274 whole entry): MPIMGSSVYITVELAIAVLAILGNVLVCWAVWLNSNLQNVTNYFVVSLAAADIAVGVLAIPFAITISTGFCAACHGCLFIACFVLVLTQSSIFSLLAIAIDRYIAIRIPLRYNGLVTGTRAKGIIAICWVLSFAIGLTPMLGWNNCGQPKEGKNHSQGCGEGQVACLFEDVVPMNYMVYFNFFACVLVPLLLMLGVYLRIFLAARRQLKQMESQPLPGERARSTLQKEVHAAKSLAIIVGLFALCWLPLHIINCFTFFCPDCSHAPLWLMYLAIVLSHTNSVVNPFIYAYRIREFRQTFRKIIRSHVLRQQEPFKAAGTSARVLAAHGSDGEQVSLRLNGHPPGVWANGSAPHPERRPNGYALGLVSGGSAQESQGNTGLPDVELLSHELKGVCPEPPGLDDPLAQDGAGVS
Source text: (§2) Nonetheless, as a non-aryl/heterobiaryl acetylene mGlu5 NAM with an encouraging in vivo rodent PK profile, we wished to further assess VU6043653 as a novel chemotype. Therefore, we compared metabolites in multiple species to better understand species differences in clearance and metabolism. […] Consistent with the high plasma clearance observed in dogs, high turnover was observed more so in dog hepatocytes than any other species tested (see the Supporting Information for additional details and results). To further evaluate our novel chemotype, the off-target and safety/toxicity profiles for this compound were further investigated.
(§3) Table S2. Lead Profiling Screen – Eurofins Panlabs for VU6043653.

Endothelin ETB = Endothelin ETB (Homo sapiens, UniProt P24530); assay: Lead Profiling Screen, Eurofins Panlabs; type: binding; settings: hum, read-out: % inh at 10 μM
Chain of Endothelin ETB (P24530 27-442): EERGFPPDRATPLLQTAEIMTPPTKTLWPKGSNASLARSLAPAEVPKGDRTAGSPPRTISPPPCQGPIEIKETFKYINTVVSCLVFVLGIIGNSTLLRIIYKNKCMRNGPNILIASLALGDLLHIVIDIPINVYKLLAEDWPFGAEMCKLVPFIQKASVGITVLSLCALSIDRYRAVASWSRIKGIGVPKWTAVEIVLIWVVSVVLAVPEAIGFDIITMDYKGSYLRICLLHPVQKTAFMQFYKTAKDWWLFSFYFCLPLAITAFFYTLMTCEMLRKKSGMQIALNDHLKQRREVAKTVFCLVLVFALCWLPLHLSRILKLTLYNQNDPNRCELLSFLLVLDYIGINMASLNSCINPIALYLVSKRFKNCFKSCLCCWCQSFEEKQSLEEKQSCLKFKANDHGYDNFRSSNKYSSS
Source text: as §2, §3

Histamine H3 = Histamine H3 (Homo sapiens, UniProt Q9Y5N1); assay: Lead Profiling Screen, Eurofins Panlabs; type: binding; settings: Histamine H3, hum, read-out: % inh at 10 μM
Chain of Histamine H3 (Q9Y5N1 whole entry): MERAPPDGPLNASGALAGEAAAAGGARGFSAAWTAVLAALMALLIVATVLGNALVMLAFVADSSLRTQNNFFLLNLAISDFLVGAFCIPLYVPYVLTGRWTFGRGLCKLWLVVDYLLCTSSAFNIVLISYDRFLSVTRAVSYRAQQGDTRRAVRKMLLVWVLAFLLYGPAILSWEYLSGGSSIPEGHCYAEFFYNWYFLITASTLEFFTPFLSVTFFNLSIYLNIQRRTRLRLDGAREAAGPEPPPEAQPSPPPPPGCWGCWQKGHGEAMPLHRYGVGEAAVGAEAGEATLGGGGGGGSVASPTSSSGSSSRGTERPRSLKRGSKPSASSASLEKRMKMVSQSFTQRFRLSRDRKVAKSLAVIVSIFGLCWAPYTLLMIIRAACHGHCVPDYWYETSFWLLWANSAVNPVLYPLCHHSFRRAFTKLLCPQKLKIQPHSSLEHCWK
Source text: as §2, §3

human mGlu8 = biological target: T3, human mGlu8 (Homo sapiens, UniProt O00222); assay: mGlu selectivity, calcium mobilization assay; type: cell-based
T3 construct: expressed in transfected cells
T3 sequence (O00222 34-908): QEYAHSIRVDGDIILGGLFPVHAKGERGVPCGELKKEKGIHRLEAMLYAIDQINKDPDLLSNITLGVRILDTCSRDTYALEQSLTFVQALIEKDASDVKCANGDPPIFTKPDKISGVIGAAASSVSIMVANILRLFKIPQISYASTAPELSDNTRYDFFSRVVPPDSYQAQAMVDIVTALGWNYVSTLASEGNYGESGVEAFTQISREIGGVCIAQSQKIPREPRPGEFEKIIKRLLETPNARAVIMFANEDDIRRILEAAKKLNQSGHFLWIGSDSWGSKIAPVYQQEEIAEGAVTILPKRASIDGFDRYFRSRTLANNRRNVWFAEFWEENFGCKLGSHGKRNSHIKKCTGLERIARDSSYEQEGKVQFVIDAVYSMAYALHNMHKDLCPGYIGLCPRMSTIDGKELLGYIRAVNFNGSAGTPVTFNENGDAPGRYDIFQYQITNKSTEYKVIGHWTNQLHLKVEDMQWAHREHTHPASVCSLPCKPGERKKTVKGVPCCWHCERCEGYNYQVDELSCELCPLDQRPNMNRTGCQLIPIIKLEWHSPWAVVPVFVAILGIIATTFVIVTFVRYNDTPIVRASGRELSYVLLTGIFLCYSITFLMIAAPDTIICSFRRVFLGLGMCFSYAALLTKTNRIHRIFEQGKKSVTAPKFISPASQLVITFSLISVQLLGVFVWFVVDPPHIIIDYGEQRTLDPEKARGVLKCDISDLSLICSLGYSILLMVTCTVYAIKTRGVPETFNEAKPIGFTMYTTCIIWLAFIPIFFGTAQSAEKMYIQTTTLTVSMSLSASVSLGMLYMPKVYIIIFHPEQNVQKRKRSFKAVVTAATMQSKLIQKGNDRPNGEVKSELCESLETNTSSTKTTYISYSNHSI
Protocol: as §1

human mGlu7 = biological target: T4, human mGlu7 (Homo sapiens, UniProt Q14831); assay: mGlu selectivity, calcium mobilization assay; type: cell-based
T4 construct: expressed in transfected cells
Protocol: as §1

Muscarinic M2 = Muscarinic M2 (Homo sapiens, UniProt P08172); assay: Lead Profiling Screen, Eurofins Panlabs; type: binding; settings: Muscarinic M2, hum, read-out: % inh at 10 μM
Chain of Muscarinic M2 (P08172 whole entry): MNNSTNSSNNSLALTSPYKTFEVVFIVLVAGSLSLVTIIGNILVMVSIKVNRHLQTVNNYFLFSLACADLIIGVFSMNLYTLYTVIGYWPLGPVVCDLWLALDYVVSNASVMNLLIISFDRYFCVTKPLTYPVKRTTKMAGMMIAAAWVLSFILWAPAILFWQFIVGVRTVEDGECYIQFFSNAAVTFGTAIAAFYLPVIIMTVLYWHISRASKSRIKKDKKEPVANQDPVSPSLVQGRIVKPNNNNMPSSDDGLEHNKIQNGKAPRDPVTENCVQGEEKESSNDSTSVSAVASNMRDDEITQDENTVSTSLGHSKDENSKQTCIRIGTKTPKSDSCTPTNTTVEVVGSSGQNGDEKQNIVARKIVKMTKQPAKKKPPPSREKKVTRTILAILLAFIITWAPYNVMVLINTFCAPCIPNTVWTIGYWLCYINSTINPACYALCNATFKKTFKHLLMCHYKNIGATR

Transporter, GABA = assay: Lead Profiling Screen, Eurofins Panlabs; type: binding; settings: rat
Phorbol Ester = assay: Lead Profiling Screen, Eurofins Panlabs; type: binding; settings: mouse
Sodium Channel, Site 2 = assay: Lead Profiling Screen, Eurofins Panlabs; type: binding; settings: Site 2, rat

T1 sequence (Q13255 19-1194): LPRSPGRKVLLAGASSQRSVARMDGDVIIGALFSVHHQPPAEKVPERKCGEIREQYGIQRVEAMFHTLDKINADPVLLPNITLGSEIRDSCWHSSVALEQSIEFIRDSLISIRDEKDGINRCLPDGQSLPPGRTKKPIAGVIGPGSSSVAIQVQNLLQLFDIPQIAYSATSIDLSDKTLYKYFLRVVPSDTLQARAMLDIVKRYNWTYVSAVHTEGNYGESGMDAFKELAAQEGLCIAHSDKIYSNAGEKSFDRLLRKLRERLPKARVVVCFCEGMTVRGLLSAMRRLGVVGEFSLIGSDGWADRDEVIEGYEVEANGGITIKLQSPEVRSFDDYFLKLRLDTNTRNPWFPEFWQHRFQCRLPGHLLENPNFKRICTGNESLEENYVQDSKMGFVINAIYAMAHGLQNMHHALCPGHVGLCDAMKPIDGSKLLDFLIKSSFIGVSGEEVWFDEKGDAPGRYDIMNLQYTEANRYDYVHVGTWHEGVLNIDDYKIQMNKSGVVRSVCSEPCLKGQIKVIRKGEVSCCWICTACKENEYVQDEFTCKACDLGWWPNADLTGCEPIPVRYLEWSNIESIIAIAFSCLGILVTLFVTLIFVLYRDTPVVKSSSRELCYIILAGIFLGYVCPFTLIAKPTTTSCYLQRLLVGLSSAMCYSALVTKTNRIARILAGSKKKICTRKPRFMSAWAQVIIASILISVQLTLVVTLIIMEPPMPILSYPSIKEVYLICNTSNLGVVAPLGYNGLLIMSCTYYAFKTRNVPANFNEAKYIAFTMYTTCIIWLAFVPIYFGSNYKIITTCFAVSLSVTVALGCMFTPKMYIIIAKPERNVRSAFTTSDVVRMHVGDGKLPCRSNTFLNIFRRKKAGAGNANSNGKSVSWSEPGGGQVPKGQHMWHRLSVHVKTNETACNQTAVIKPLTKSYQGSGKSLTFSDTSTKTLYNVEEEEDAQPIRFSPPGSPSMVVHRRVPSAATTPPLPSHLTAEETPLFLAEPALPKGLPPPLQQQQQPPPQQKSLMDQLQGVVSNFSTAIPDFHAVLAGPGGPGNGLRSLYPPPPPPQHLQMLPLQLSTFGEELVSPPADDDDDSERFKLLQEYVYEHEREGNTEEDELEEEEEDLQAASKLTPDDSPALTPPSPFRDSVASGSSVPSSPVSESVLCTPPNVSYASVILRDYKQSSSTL

Cc1cc(Oc2cnn(C)c2)cc(C(=O)Nc2ccc(F)cn2)n1 [22iA]
IC50, human mGlu1 (human mGlu1): inactive
IC50, human mGlu4 (human mGlu4): inactive
inhibition at 10 µM (Adenosine A2A): 9%
inhibition at 10 µM (Endothelin ETB): -13%
inhibition at 10 µM (Histamine H3): 5%
IC50, human mGlu8 (human mGlu8): inactive
IC50, human mGlu7 (human mGlu7): inactive
inhibition at 10 µM (Muscarinic M2): -2%
% inh at 10 μM (Transporter, GABA): -1%
% inh at 10 μM (Phorbol Ester): -1%
% inh at 10 μM (Sodium Channel, Site 2): 25%
